From US12472448B2, “Compact hydroxamate-based affinity tags for artificially tagging biological macromolecules” (The Board of Trustees of the Leland Stanford Junior …, priority 2019, dated 2025)

Experiments:
GFP = format: cell-based, S. cerevisiae; settings: 365-nm diode, 1 minute
Experimental: S. cervisae was made to express GFP containing isoazipropyl chloride or isoazibutyl chloride as described above. These cells were illuminated by a 365-nm diode (a Prizmatix Mic-LED-365 powered by a BLCC-02 at 0.5 ampere) for 1 minute and then cryogenically ground. Their protein was run on a denaturing SDS-PAGE gel to look for higher-molecular weight species resulting from crosslinking between the two GFP monomers (see e.g., FIG. 41).

[1] = N-tagging of Alexa-350 ADNGK peptide with orthogonal affinity tags, reverse phase HPLC; settings: 5 mM of each N-tag, 4 hours at 37° C., pH 7.5
Experimental: A peptide with the sequence ADNGK (SEQ ID NO: 1) was purchased with its N-terminal Fmoc protecting group still in place. This peptide was reacted with NHS-activated fluorophore Alexa-350 (ThermoFisher, A10168) before the Fmoc group was removed using piperidine and the peptide was purified by preparative HPLC.
We treated this peptide with the N-tags form examples 7 and 10, either separately or in combination. This labeling done for 4 hours at 37° C. with 5 mM of each N-tag, 100 mM of sodium phosphate buffered to pH 7.5 and 10% acetonitrile. The resulting species were analyzed by reverse phase HPLC (see, e.g., FIG. 14).

[2] = tested on: modified RNase H containing a single cysteine; test: In vitro intraprotein photo-crosslinking, denaturing SDS-PAGE; format: biochemical; settings: mercury arc lamp, 310-370 nm
From the text: A modified RNase H containing a single cysteine was expressed, purified, alkylated with isoazipropyl chloride and repurified as above.
The alkylated protein was illuminated with a mercury arc lamp through filters selecting for light in the 310-370-nm range.

GST = GST (Schistosoma japonicum, UniProt P08515); test: Photo-crosslinking of aziethyl glutathione to GST, whole-protein LCMS; format: biochemical; settings: 1 mM, 7 mg/ml GST, 337-nm light, 30 minutes
GST, sequence (P08515 2-218): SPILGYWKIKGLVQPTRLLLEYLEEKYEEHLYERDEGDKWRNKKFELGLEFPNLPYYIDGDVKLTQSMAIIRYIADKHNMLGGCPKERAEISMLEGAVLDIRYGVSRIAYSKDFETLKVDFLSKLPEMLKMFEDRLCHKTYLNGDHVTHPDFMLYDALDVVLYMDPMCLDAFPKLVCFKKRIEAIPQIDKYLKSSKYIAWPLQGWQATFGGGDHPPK
Experimental: Aziethyl chloride was anchored to glutathione. 25 mg of glutathione and 5 mg of TCEP were dissolved in 2 ml of methanol, 1 ml of water and 50 ul of TEA. To this were added 41 ul of the aziethyl chloride-alkene mixture synthesized in example 19. The mixture was stirred overnight, lyophilized and resuspended in 2.6 ml of water to make a 30-mM solution. This aziethyl glutathione solution was used without any purification.
7 mg/ml of GST was incubated with 0 or 1 mM of aziethyl glutathione. This mixture was placed beneath 337-nm light source (Laser Science, Inc. VSL-337ND-S) for either 0 or 30 minutes and then subjected to whole-protein LCMS.

[3] = tested on: modified RNase H containing a single cysteine; test: Chemical anchoring of crosslinker to protein cysteine, Ellman's assay; format: biochemical; settings: 10 ul crosslinker, 1 hour at 37° C., pH 8.6
Experimental: A modified RNase H containing a single cysteine was expressed in E. coli and purified and purified by Ni-IMAC and heparin chromatography.
To 2.75 mg of this protein in 20 ml of 100-mM bicine, 1-mM TCEP, 600-mM NaCl, 100-mM KCl, pH 8.6 was added either 0 or 10 ul of isoazipropyl chloride. These mixtures were incubated for 1 hour at 37° C. The proteins were repurified by heparin chromatography to remove TCEP and isoazipropyl chloride, and the number of free cysteines per protein was determined using Ellman's assay.

allylcysteine [reference compound]
interprotein crosslinking of the proteins (GFP): lack of similar crosslinking

O=Cc1cccc(C(=O)NO)n1 [hydroxamate affinity tag]
labeling of peptide N-termini [1]: efficiently label the peptides

CC1(CCSC[C@H](N)C(=O)O)N=N1 [Isoazibutyl cysteine, isoazibutyl cysteine]
interprotein crosslinking of the proteins (GFP): 8%

C[C@@H]1NC(=O)N[C@@H]1CCCCCC(=O)N(C)Cc1cccc(C=O)n1 [compound 10]
labeling of peptide N-termini [1]: efficiently label the peptides

NC(=O)CI [iodoacetamide, reference compound]
appearance of faster-migrating band (intramolecular crosslink) [2]: did not appear

CC1(CSC[C@H](N)C(=O)O)N=N1 [Isoazipropyl cysteine, isoazipropyl cysteine]
interprotein crosslinking of the proteins (GFP): 2%

aziethyl glutathione
GST molecules shifted as expected from covalent crosslinking (GST): 40%

CC1(CCl)N=N1 [isoazipropyl chloride]
free cysteines per protein [3]: 0.15 | protein's cysteines anchored by the crosslinker [3]: 85% | appearance of faster-migrating band (intramolecular crosslink) [2]: new faster-migrating band to appear
